Marks after values point to notes of the source that are not given here.

Data on 84 compounds can be found in patent publication US20190110476A1, “NOVEL ISOTHIAZOLAMIDES, PROCESSES FOR THEIR PREPARATION AND THEIR USE AS FUNGICIDES” (priority 2014, published 2019).

The first series in a line: Measurement of LogP values by HPLC on reversed phase columns (EEC directive 79/831 Annex V.A8). It counts as physicochemical.
Conditions: not given
The method in brief: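 Following EEC directive 79/831 Annex V.A8, lipophilicity was derived from retention on reversed-phase HPLC columns. Separate values are given per diastereoisomer, and UV lambda-max (200–400 nm) was read at the peak signals.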
As for `Nc1nsc(C(=O)NC2CCCCC2)c1-c1ccc(F)cc1` [I-334], the LogP is 2.66[a].

`C[C@H](NC(=O)c1snc(N=CN2CCCC2)c1Cl)C1CCCCC1` [II-024]: the “LogP [a]” value is 2.73^[a].

As to `COc1ccc(CNc2nsc(C(=O)N(Cc3c(Cl)cccc3C(F)(F)F)C3CC3)c2Cl)cc1` [I-946], the LogP was 4.91[a].

Regarding `COc1ccc(CNc2nsc(C(=O)N3CCCc4ccccc43)c2Cl)cc1` [II-097], the “LogP [a]” value was 3.84^[a].

For the compound `COc1ccc(CNc2nsc(C(=O)NCc3cnn(CC(F)(F)F)c3)c2Cl)cc1` [I-1258], the LogP is 2.84[a].

As for `O=C(NCc1cc(F)ccc1F)c1snc(Cl)c1Cl` [E-II-011], the “LogP [a]” value is 3.17^[a].

Consider `CC(NC(=O)c1snc(N(Cc2ccccc2)Cc2ccccc2)c1-c1ccc(F)cc1)C1CCCCC1` (stereo not drawn) [I-317], for which the LogP is 6.63[a].

As for `Nc1nsc(C(=O)NCc2ccccc2F)c1Br` [I-832], the LogP was 1.79[a].

Turning to `Cc1ccc(CNC(=O)c2snc(N)c2Cl)c(F)c1` [I-164], the LogP was 2.18[a].

Turning to `N#Cc1ccc(CNC(=O)c2snc(N)c2Cl)cc1` [I-783], the LogP is 1.44[a].

For `Cc1cc(C)c(CN(C(=O)c2cc(N(Cc3ccccc3)Cc3ccccc3)ns2)C2CC2)c(C)c1` [I-907], the LogP was 6.25[a].

`COc1ccc(CNc2nsc(C(=O)NC(C)(C)c3ccon3)c2Cl)cc1` [I-1329]: the LogP is 3.04[a].

With `COc1ccc(CNc2nsc(C(=O)NC3CCCc4ccncc43)c2Cl)cc1` (stereo not drawn) [I-1310], the LogP was 1.67[a].

As for `Cc1ccc(F)c(CN(C(=O)c2cc(N(Cc3ccccc3)Cc3ccccc3)ns2)C2CC2)c1` [I-990], the LogP was 5.56[a].

For the compound `COc1ccc(CNc2nsc(C(=O)N(c3ccc(F)cc3)C3CC3)c2Cl)cc1` [I-922], the LogP was 3.85[a].

As to `COc1ccc(Nc2nsc(C(=O)N[C@@H](C)C3CCCCC3)c2Cl)cc1` [I-068], the LogP was 4.59[a].

Turning to `CCC(NC(=O)c1snc(NCc2ccc(OC)cc2)c1Cl)c1cn(CC)nc1C` (stereo not drawn) [I-1202], the LogP is 3.02[a].

As to `COc1cc(F)ccc1CNC(=O)c1snc(NC(=O)C(F)(F)F)c1Cl` [I-819], the LogP is 2.72[a].

As to `Nc1nsc(C(=O)NC2CCCCC2)c1C1CC1` [I-360], the LogP is 2.00[a].

Regarding `COc1ccc(CNc2nsc(C(=O)NCc3cc(C(F)(F)F)cc(C(F)(F)F)c3)c2Cl)cc1` [I-1313], the LogP is 4.46[a].

Regarding `Nc1nsc(C(=O)NCCc2ccccc2F)c1Cl` [I-972], the LogP was 2.11[a].

Consider `COc1ccc(CNc2nsc(C(=O)NCc3cn(C(C)C)nc3C)c2Cl)cc1` [I-1257], for which the LogP is 2.82[a].

As for `C#CCOC(=O)N(C(=O)OCC#C)c1nsc(C(=O)N[C@@H](C)C2CCCCC2)c1Cl` [I-135], the LogP is 3.96[a].

As for `CCC1(CNC(=O)c2snc(NCc3ccc(OC)cc3)c2Cl)CCCCC1` [I-824], the LogP was 4.89[a].

In the case of `CCCCC(=O)Nc1nsc(C(=O)NCC2CCCCC2)c1Cl` [I-450], the LogP was 3.20[c].

Consider `C[C@H]1CCCC[C@H]1CNC(=O)c1snc(N)c1I` (relative stereo) [I-1540], for which the LogP was 2.73[a].

For the compound `Cc1cc(Cl)ccc1CNC(=O)c1snc(N)c1Cl` [I-389], the LogP was 2.60[a].

With `COc1ccc(CNc2cc(C(=O)O)sn2)cc1` [E-VIII-016], the “LogP [a]” value was 1.87^[a].

Take `COc1ccc(CNc2nsc(C(=O)Nc3ccc(F)cc3F)c2Cl)cc1` [I-856]: the LogP is 3.83[a].

As for `CCCS(CC)=Nc1nsc(C(=O)NCc2cc(F)c(F)cc2F)c1F` (stereo not drawn) [II-103], the “LogP [a]” value was 2.10^[a].

`COc1ccc(CNc2nsc(C(=O)NC3CCOCC3C)c2Cl)cc1` (stereo not drawn) [I-1336]: the LogP is 2.80[a].

Consider `Nc1nsc(C(=O)NCc2c(F)ccc(F)c2F)c1Cl` [I-129], for which the LogP was 1.91[a].

For the compound `COc1c(N)nsc1C(=O)NCC1CCCCO1` (stereo not drawn) [I-734], the LogP is 1.31[a].

As to `CCc1ccccc1C(C)N(C(=O)c1snc(N)c1Cl)C1CC1` (stereo not drawn) [I-887], the LogP was 3.37[a].

On to `Cc1c(N)nsc1C(=O)NCC1CCCC1O` (single isomer, unassigned) [I-707], for which the LogP was 0.82[a].

Take `Nc1cc(C(=O)NCC2CCCCC2)sn1` [I-005]: the LogP is 1.92[a].

Consider `C[C@H](NC(=O)c1snc(N)c1Cl)C1CCCCC1` [I-003], for which the LogP is 2.50[a].

With `COc1ccc(CNc2nsc(C(=O)N3CCc4c(Cl)ccc(Cl)c4C3)c2Cl)cc1` [II-068], the “LogP [a]” value is listed as 4.66 and the “LogP [b]” value was 4.55.

`Cc1c(N)nsc1C(=O)NCc1ccc(C#N)cc1F` [I-150]: the LogP is 1.35[a].

Turning to `COc1ccc(CNc2nsc(C(=O)NC(C)c3ccncc3)c2Cl)cc1` (stereo not drawn) [I-1189], the LogP was 1.54[a].

Turning to `Nc1nsc(C(=O)NC2CCCCC2)c1Br` [I-841], the LogP was 2.11[a].

On to `O=C(c1cc(NCc2ccccc2)ns1)N(Cc1cc(Cl)ccc1Br)C1CC1` [I-1002], for which the LogP is 4.51[a].

Take `Cc1nonc1NC(=O)c1snc(N)c1Cl` [I-1361]: the LogP is 1.27[a].

With `O=C(NCC1CCCCC1)c1snc(N=S(Cc2ccccc2)Cc2ccccc2)c1Cl` [II-084], the “LogP [a]” value is 4.38^[a].

Consider `Cc1ccc(NC(=O)c2snc(N(Cc3ccccc3)Cc3ccccc3)c2Br)cc1Cl` [I-951], for which the LogP is 6.35[a].

Consider `Nc1nsc(C(=O)NCc2cc(F)cc(F)c2)c1Cl` [I-024], for which the LogP was 2.11[a].

`O=C(NC1CCCc2ccccc21)c1snc(Cl)c1Cl` (stereo not drawn) [E-II-021]: the “LogP [a]” value is 4.07 and the “LogP [b]” value is recorded as 3.98.

As to `CCC1(CNC(=O)c2snc(NC(C)C)c2Cl)CCCCC1` [I-834], the LogP was 5.03[a].

For `Nc1nsc(C(=O)NCC2CCCCC2C(F)(F)F)c1Cl` (stereo not drawn) [I-1567], the LogP is 2.69[a].

`COc1ccc(CNc2nsc(C(=O)NC(C)c3nc(C(C)C)no3)c2Cl)cc1` (stereo not drawn) [I-1332]: the LogP was 3.46[a].

Regarding `CC(C)OC(=O)c1snc(N)c1Cl` [E-VII-005], the “LogP [a]” value was 2.17 and the “LogP [b]” value is on record as 2.16.

On to `Cc1nc(CNC(=O)c2snc(N)c2Cl)cs1` [I-1362], for which the LogP was 1.14[a].

Turning to `Nc1nsc(C(=O)NCCc2ccccc2)c1Cl` [I-851], the LogP was 1.98[a].

`Nc1nsc(C(=O)NCc2ccccc2Br)c1Cl` [I-1553]: the LogP is 1.88[a].

In the case of `Nc1nsc(C(=O)NC2CCCC3CCCCC32)c1Cl` (stereo not drawn) [I-622], the LogP is 3.48[a].

Turning to `Nc1nsc(C(=O)NCC2(F)CCCCC2)c1Cl` [I-615], the LogP was 2.17[a].

On to `Nc1nsc(C(=O)NOc2ccccc2)c1Cl` [I-1033], for which the LogP was 1.53[a].

`CC1CCCC(NC(=O)c2snc(N)c2Cl)C1` (stereo not drawn) [I-1563]: the LogP is 2.37[a].

With `COc1ccc(CNc2nsc(C(=O)NCc3cccc4ccccc34)c2Cl)cc1` [I-1268], the LogP is 4.11[a].

For the compound `Cc1ccc(C)c(CN(C(=O)c2snc(N)c2Cl)C2CC2)c1` [I-119], the LogP is 3.04[a].

Consider `O=C(c1cc(N(Cc2ccccc2)Cc2ccccc2)ns1)N(Cc1c(Cl)cccc1Cl)C1CC1` [I-939], for which the LogP was 5.90[a].

Regarding `CN(C)C=Nc1nsc(C(=O)NC2CCCC3CCCCC32)c1Cl` (stereo not drawn) [II-038], the “LogP [a]” value was 3.94^[a].

`COc1ccc(CNc2nsc(C(=O)NC(C)c3ccccc3F)c2Cl)cc1` (stereo not drawn) [I-1212]: the LogP was 3.79[a].

As for `CC(C)CNC(=O)c1cc(N)ns1` [I-985], the LogP is 1.07[a].

Turning to `Cc1ccc(C(C)(C)C)c(CNC(=O)c2snc(N)c2Cl)c1` [I-329], the LogP was 3.46[a].

Take `CCCS(CC)=Nc1nsc(C(=O)NCc2c(F)cc(F)cc2F)c1F` (stereo not drawn) [II-105]: the “LogP [a]” value was 1.92^[a].

As for `O=C(NCc1ccccc1F)c1snc(Nc2ccccc2)c1Cl` [I-067], the LogP was 3.63[a].

For `CS(C)=Nc1nsc(C(=O)NCc2c(F)cc(F)cc2F)c1Cl` [II-043], the “LogP [a]” value was 1.42^[a].

`COc1ccc(CN(C)c2nsc(C(=O)N[C@@H](C)C3CCCCC3)c2Cl)cc1` [I-087]: the LogP is 5.51[a].

In the case of `O=C(NCc1ccccc1F)c1snc(N(Cc2ccccc2)Cc2ccccc2)c1-c1ccc(F)cc1` [I-320], the LogP was 5.45[a].

In the case of `Nc1nsc(C(=O)NCC2CC=CCC2)c1Cl` (stereo not drawn) [I-085], the LogP was 2.14[a].

Regarding `CS(C)=Nc1nsc(C(=O)NCc2ccc(F)c(F)c2F)c1F` [II-076], the “LogP [a]” value was 1.39^[a].

As for `C[C@H](NC(=O)c1snc(NCc2ccccc2)c1Cl)C1CCCCC1` [I-040], the LogP was 4.74[a].

Consider `Cc1ccc(NC(=O)c2cc(N)ns2)cc1Cl` [I-920], for which the LogP is 2.35[a].

In the case of `COC(=O)c1snc(N)c1Cl` [E-VII-001], the “LogP [a]” value was 1.42^[a].

On to `O=C(Nc1nscc1Cl)c1ccc(F)cc1` [Z-A-002], for which the “LogP [a]” value was 1.74^[a].

On to `COc1ccc(CNc2nsc(C(=O)NCc3ccn(C)n3)c2Cl)cc1` [I-1238], for which the LogP is 2.39[a].

In the case of `COc1ccc(CNc2nsc(C(=O)NC3CCOCC3)c2Cl)cc1` [I-1190], the LogP is 2.50[a].

As to `O=C(Nc1nsc(C(=O)O)c1Cl)c1ccc(F)cc1` [E-VIII-007], the “LogP [a]” value was 1.02^[a].

Turning to `Nc1cc(C(=O)NCc2ccc(F)cc2F)sn1` [I-031], the LogP is 1.56[a].

Consider `O=C(NCc1ccc(F)cc1F)c1cc(N(Cc2ccccc2)Cc2ccccc2)ns1` [I-322], for which the LogP was 4.45[a].

In the case of `C[C@H]1[C@H](CNC(=O)c2snc(N)c2Cl)CCC[C@H]1C` (relative stereo) [I-1291], the LogP was 3.10[a].

`Cc1ccc(CNC(=O)c2snc(N)c2Cl)c(F)c1F` [I-123]: the LogP is 2.26[a].

Still in this series, the particulars now being: HPLC LC-UV, acidic range, 0.1% formic acid in water and acetonitrile as eluent.
`O=Cc1c(N(Cc2ccccc2)Cc2ccccc2)nsc1C(=O)O` [E-VIII-006, 3-(dibenzylamino)-4-formyl-1,2-thiazole-5-carboxylic acid]: the chromatographic logP worked out at 3.21.
